Laboratory results: patent US7592421B1, “HLA class II peptide mimics” (Health Research, Inc., priority 2003, dated 2009)
Entries after “also recorded” stand apart in the source; their conditions may differ.

Legend:
[1] = test system: mAb H2-27.F5.2G4 binding to HLA class II antigen on LG2 cells; assay: Inhibition of binding of mAb H2-27.F5.2G4 to HLA class II bearing LG2 cells; design: species or system human; conditions: FIG. 1B; negative control peptide 673.74
Description: (§1) Peptide mimics of HLA class II antigen can be isolated by panning phage display peptide libraries with anti-HLA class II antigen mAbs. Anti-HLA class II antigen mAbs can be used to isolate phage that display antibody reactive peptides. After phage panning, the binding ability of isolated phage colonies to anti-HLA class II antigen mAbs is tested with immunoscreening and further confirmed by enzyme-linked immunosorbent assay (ELISA). Anti-HLA class II antigen antibody reactive phage clone and the same phage without displaying peptides, can be utilized as a positive and a negative controls respectively in the immunoscreening and ELISA. In the positive phage clones, the DNA inserts that encode the antibody reactive peptides can be sequenced. Peptides can be synthesized based on the sequences of the DNA inserts. The synthesized peptides are tested in ELISA to determine their binding reactivity with corresponding anti-HLA class II antigen mAbs. The ability of synthetic peptides to inhibit the binding of anti-HLA class II antigen mAbs to HLA class II antigen can be tested in an inhibition assay with HLA class II antigen-positive cell lines. The synthetic peptides that inhibit or block the binding of anti-HLA class II antigen mAbs to HLA class II antigen can be tested as active immunotherapy candidates. […]

[2] = test system: mAb LGII-612.14 binding to HLA class II antigens on LG2 cells; assay: Inhibition of binding of mAb LGII-612.14 to HLA class II bearing LG2 cells; design: species or system human; conditions: FIG. 1C; negative control peptide 673.74
Description: as §1

[3] = test system: mAb TP117.6 binding to HLA class II antigens on LG2 cells; assay: Inhibition of binding of mAb TP117.6 to HLA class II bearing LG2 cells; design: species or system human; conditions: FIG. 1D
Description: as §1

[4] = test system: mAb TP25.99, which recognizes HLA class I antigens; assay: Inhibition of binding of control mAb TP25.99 (specificity control); conditions: FIG. 1E
Description: This Example illustrates the ability of the peptide mimics to bind to anti-HLA class II mAbs. The synthetic peptides were tested by ELISA for their ability to bind to anti-HLA class II mAb H2-27.F5.2G4, HT214.F2.H6.4F4, LGII612.14 and TP117.6. JH1 and JHT1 were also tested for their ability to inhibit the binding of anti-HLA class II mAb H2-27.F5.2G4 (FIG. 1B), HT214.F2.H6.4F4 (FIG. 1A), LGII612.14 (FIG. 1C) and TP117.6 (FIG. 1D) to HLA class II bearing cells LGL2 cells. H2-27.F5.2G4, LGII-612.14 and HT214.F2.H6.4F4 are monoclonal antibodies (mAb) that recognize HLA class II antigens. TP25.99 is a monoclonal antibody (mAb) which recognizes HLA class I antigens and is used in FIG. 1E as a control. LG2 is a human lymphoid cell line which expresses HLA class II antigens on its cell surface. P763.74 is a High Molecular Weight-Melanoma Associated Antigen (HMW-MAA) peptide mimic isolated using the anti-HMW-MAA mAb 763.74 and is used in FIGS. 1A-1C as a control peptide. The peptides were considered to be mimics of HLA class II antigens if they could inhibit the binding of any of the four anti-HLA class II mAb (H2-27, F5.2G4, HT214.F2.H6.4F4, LGII612.14 and TP117.6) to HLA class II bearing cells.

[5] = test system: anti-HLA class II mAb H2-27.F5.2G4; assay: ELISA binding of synthetic peptide to mAb H2-27.F5.2G4; conditions: ELISA and inhibition assay
Description: as §1

[6] = test system: anti-HLA class II mAb LGII-612.14; assay: ELISA binding of synthetic peptide to mAb LGII-612.14; conditions: ELISA and inhibition assay
Description: as §1

HLA class II antigens [7] = assay: Immunization of BALB/c mice, serum reactivity with HLA class II antigens; assay type: in vivo; conditions: peptide conjugated to KLH with Freund's adjuvant, sera day 35, FIG. 2
Description: (§2) HLA-DR transgenic mice express HLA-DR molecules. The promoter that is used to drive DR expression in the transgenic mice is H2 Ea promoter (pDOI-5 expression vector). This vector directs the expression of cDNA to cells which normally display class II molecules. HLA-DR transgenic mice were utilized as a model to test whether HLA class II peptide mimics can break tolerance to self-antigen. HLA-DR transgenic mice were immunized with peptide JH1 and JHT1 conjugated to keyhole limpet hemocyanin (KLH) and mixed with complete Freund's adjuvant for priming and with incomplete Freund's adjuvant for boosting. […] These experiments utilized LG2 cells as described in Example 2 and MOLT-4 cells. […] It was used as a control. Sera used for testing reactivity with HLA class II antigens was harvested on day 35 from BABL/c mice for FIGS. 2 and 4 and on day 70 from HLA-DR transgenic mice in FIG. 3. For FIGS. 2, 3 and 4, preimmune serum was harvested one week before the first immunization and was used as a control. […] One intradermal injection with HLA class II bearing LG2 cells enhanced the immune response to HLA class II antigens.

HLA class II antigens [8] = assay: Immunization of HLA-DR transgenic mice, breaking of self-tolerance; assay type: in vivo; conditions: peptide conjugated to KLH with Freund's adjuvant, sera day 70, FIG. 3
Description: as §2

[9] = test system: HLA class II antigens of LG2 lymphoid cells; assay: Flow cytometry of immune sera with LG2 lymphoid cells; assay type: cell-based, human; conditions: sera of immunized BALB/c mice, day 35; FIG. 4A
Description: as §2

MOLT-4 lymphoid cells = assay: Flow cytometry of immune sera with control MOLT-4 lymphoid cells; assay type: cell-based, human; conditions: sera of immunized BALB/c mice, day 35; MOLT-4 does not express HLA class II; FIG. 4B
Description: as §2

[10] = test system: immunizing peptides; HLA class II; assay: Antibody titers in sera of immunized mice; assay type: in vivo; conditions: peptide-KLH, Freund's adjuvant; FIGS. 2-4
Description: as §2

[11] = Side effects in immunized mice; assay type: in vivo; conditions: peptide-KLH, Freund's adjuvant
Description: as §2

[12] = test system: mAb HT214.F2.H6.4F4 binding to HLA class II antigens on LG2 cells; assay: Inhibition of binding of mAb HT214.F2.H6.4F4 to HLA class II bearing LG2 cells; design: species or system human; conditions: FIG. 1A; negative control peptide 673.74
Description: as §1

[13] = test system: anti-HLA class II mAb HT214.F2.H6.4F4; assay: ELISA binding of synthetic peptide to mAb HT214.F2.H6.4F4; conditions: ELISA and inhibition assay
Description: as §1

Sequence | inhibition of binding of mAb H2-27.F5.2G4 to HLA class II antigen on LG2 cells [1] | inhibition of binding of mAb LGII-612.14 to HLA class II antigens on LG2 cells [2] | inhibition of binding of mAb TP117.6 to HLA class II antigens on LG2 cells [3] | inhibition of binding of mAb TP25.99 (anti-HLA class I, control) [4] | reaction with the combining site of mAb H2-27.F5.2G4 [5] | reaction with the combining site of mAb LGII-612.14 [6] | humoral immune response against HLA class II antigens (HLA class II antigens [7]) | breaking self-tolerance, humoral immune response against HLA class II antigens (HLA class II antigens [8]) | reactivity of immune sera with HLA class II antigens of LG2 lymphoid cells (flow cytometry) [9] | reactivity of immune sera with control MOLT-4 lymphoid cells (flow cytometry) (MOLT-4 lymphoid cells) | anti-HLA class II antibodies in sera of immunized mice [10] | antibodies to the immunizing peptides in sera of immunized mice [10] | side effects in immunized mice [11] | inhibition of binding of mAb HT214.F2.H6.4F4 to HLA class II antigens on LG2 cells [12] | reaction with the combining site of mAb HT214.F2.H6.4F4 [13]
SCLRAGGWVCCK (unknown synthesized peptide JH1) [HLA class II peptide mimic isolated by panning phage display libraries with mAb H2-27.F5.2G4 and LGII-612.14] | inhibits binding of mAb H2-27.F5.2G4 to HLA class II antigen on LG2 cells in a dose-dependant manner | inhibits binding of mAb LGII-612.14 to HLA class II antigens on LG2 cells in a dose-dependent manner | can inhibit binding | do not inhibit binding | reacted with the combining sites | reacted with the combining sites | elicits a humoral immune response against HLA class II antigens; also recorded: induced a humoral response against HLA class II antigens | can break self-tolerance and elicit a humoral immune response against HLA class II antigens | reactivity | lack of reactivity | detected in the sera of immunized mice at lower titers | high-titer antibodies to the immunizing peptides were detected | No obvious side effects | – | –
KCPLDPKGLNCV (unknown synthesized peptide JHT1) [HLA class II peptide mimic isolated by panning with mAb HT214.F2.H6.4F4] | – | – | can inhibit binding | do not inhibit binding | – | – | elicits a humoral immune response against HLA class II antigens; also recorded: also induced a humoral response against HLA class II antigens | can break self-tolerance and elicit a humoral immune response against HLA class II antigens; also recorded: can also break self-tolerance | reactivity | lack of reactivity | detected in the sera of immunized mice at lower titers | high-titer antibodies to the immunizing peptides were detected | No obvious side effects | inhibits binding of mAb HT214.F2.H6.4F4 to HLA class II antigens to LG2 cells in a dose-dependent manner | reacted with the combining sites
